Data set [1] addresses T1, PI3Kα (p110α/p85α) (Homo sapiens, UniProt P42336).
T1 construct: N-terminal histidine-tagged recombinant full-length human p110α; His tag (N); made in house; host or cells: Baculovirus-infected Sf9 insect cells
The experiment in a line: PI3Kα fluorescence polarization assay. In kind it is biochemical. The conditions noted are these: 10 μM ATP. On the procedure:
(a) An In Vitro Assay which Determines the Ability of a Test Compound to Inhibit PI3Kα.
Activity of PI3Kα was measured using fluorescence polarization assay. PI3Kα, a complex of N-terminal histidine-tagged recombinant full-length human p110α and untagged recombinant full length human p85α were coexpressed in a Baculovirus infected Sf9 cell expression system. (GenBank Accession No. for p110α, U79143; for p85α, XM—043865). The proteins are purified by one-step affinity chromatography using glutathione-agarose. A competition assay was performed to measure the amount of PIP3 generated from PIP2 in the presence of purified recombinant PI3Kα (p110α/p85α). PI3K a was incubated with 10 μM PIP2 substrate in the reaction buffer (20 mM HEPES, pH 7.5, 10 mM NaCl, 4 mM MgCl2, 2 mM DTT, 10 μM ATP and 1% DMSO) for 1 hour at 30° C. The reaction product was then mixed with a PIP3 detector protein and the fluorescent PIP3 probe. Polarization (mP) values decrease as fluorescent probe binding to the PIP3 detector is displaced by PIP3 produced by enzymatic activity and the amount of unbound fluorescent probe in the mixture increases. Polarization degrees (mP) value was determined using microplate reader with background subtraction.

For data set [2], the system named is HDACs (HeLa cell nuclear extracts). The experiment in a line: HDAC enzymatic activity, Biomol Color de Lys system. In kind it is biochemical. The procedure, abridged: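 HeLa nuclear extract as HDAC source with Color de Lys substrate in 50 mM Tris/Cl pH 8.0, 137 mM NaCl, 2.7 mM KCl, 1 mM MgCl2. Serially diluted compounds reacted 1 h at 25 °C, then developer added; fluorescence (Ex 350–380/Em 440–460) fitted sigmoidally for IC50.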

Data set [3] relates to MDA-MB-231 cells. Put plainly: Cell proliferation assay Method B, MDA-MB-231. It counts as cell-based. The note with it: Homo sapiens, Breast, Method B, 72 hours, read-out: antiproliferative activity IC50, MDA-MB-231 (second listing, r32). How it is done:
(§1) Cancer cell lines were plated at 5,000 to 10,000 per well in 96-well flat bottomed plates with various concentration of compounds. The cells were incubated with compounds for 72 hours in the presence of 0.5% of fetal bovine serum. Growth inhibition was accessed by adenosine triphosphate (ATP) content assay using Promega CellTiter-Glo kit. Promega CellTiter-Glo kit is an ATP monitoring system based on firefly luciferase. Briefly, 16 μl of mammalian cell lysis and substrate solution was added to 84 μl of culture medium per well to lyse the cells and stabilize the ATP. The mixture was shaken and incubated for 30 minutes and subsequently the luminescence was measured.

The subject of data set [4] is HCC1500 cells. Put plainly: Cell proliferation assay Method B, HCC1500. In kind it is cell-based. The conditions noted are these: Breast, 72 hours, read-out: antiproliferative activity IC50, HCC1500. How it is done:
as §1

Data set [5] relates to HCC1806 cells. The experiment in a line: Cell proliferation assay Method B, HCC1806. It counts as cell-based. The conditions noted are these: Homo sapiens, Breast, 72 hours, read-out: antiproliferative activity IC50, HCC1806. How it is done:
as §1

The subject of data set [6] is SKBr3 cells. The experiment in a line: Cell proliferation assay Method B, SKBr3. It counts as cell-based. The conditions noted are these: Homo sapiens, SK-BR-3, Breast, 72 hours, read-out: antiproliferative activity IC50, SKBr3. On the procedure:
as §1

Data set [7] relates to BT474 cells. Put plainly: Cell proliferation assay Method B, BT474. It counts as cell-based. The note with it: Homo sapiens, BT-474; Breast; Method B; 72 hours; read-out: antiproliferative activity IC50, BT474. In a few lines: (§2)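 Cells were seeded at 5,000 to 10,000 per well with a range of compound concentrations and exposed for 72 hours in 0.5% fetal bovine serum. Growth inhibition was assessed by ATP content using a firefly luciferase luminescence read-out after lysis.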

For data set [8], the system named is MDA-MB-361 cells. The experiment in a line: Cell proliferation assay Method B, MDA-MB-361. In kind it is cell-based. The note with it: Homo sapiens, Breast, 72 hours, read-out: antiproliferative activity IC50, MDA-MB-361. On the procedure: as §1
The test system of data set [9] is UACC-893 cells. Put plainly: Cell proliferation assay Method B, UACC-893. In kind it is cell-based. The conditions noted are these: Homo sapiens, Breast, 72 hours, read-out: antiproliferative activity IC50, UACC-893. On the procedure: as §1
The subject of data set [10] is MDA-MB-453 cells. The experiment in a line: Cell proliferation assay Method B, MDA-MB-453. The conditions noted are these: Homo sapiens, Breast, 72 hours, read-out: antiproliferative activity IC50, MDA-MB-453. In kind it is cell-based. On the procedure: as §1
Data set [11] concerns MCF-7 cells. Put plainly: Cell proliferation assay Method B, MCF-7. In kind it is cell-based. The conditions noted are these: Homo sapiens, MCF7, Breast, 72 hours, read-out: antiproliferative activity IC50, MCF-7. How it is done: as §1
For data set [12], the system named is T47D cells. The experiment in a line: Cell proliferation assay Method B, T47D. In kind it is cell-based. The note with it: Homo sapiens, Breast, 72 hours, read-out: antiproliferative activity IC50, T47D. How it is done:
as §1

Data set [13] deals with ZR-75-1 cells. Put plainly: Cell proliferation assay Method B, ZR-75-1. In kind it is cell-based. The conditions noted are these: Homo sapiens, Breast, 72 hours, read-out: antiproliferative activity IC50, ZR-75-1. On the procedure: as §1
Data set [14] has as its system MDA-MB-468 cells. Put plainly: Cell proliferation assay Method B, MDA-MB-468. In kind it is cell-based. The conditions noted are these: Homo sapiens, Breast, Method B, 72 hours, read-out: antiproliferative activity IC50, MDA-MB-468. The procedure, abridged:
as §2

Data set [15] relates to MOLT-4 cells. The experiment in a line: Cell proliferation assay Method B, MOLT-4. In kind it is cell-based. The conditions noted are these: Homo sapiens, ALL, 72 hours, read-out: antiproliferative activity IC50, MOLT-4. How it is done: as §1
Data set [16] has as its system SUP-B15 cells. The experiment in a line: Cell proliferation assay Method B, SUP-B15. The conditions noted are these: Homo sapiens, ALL, 72 hours, read-out: antiproliferative activity IC50, SUP-B15. It counts as cell-based. How it is done:
as §1

Data set [17] deals with HL-60 cells. Put plainly: Cell proliferation assay Method B, HL-60. It counts as cell-based. The conditions noted are these: Homo sapiens, AML, 72 hours, read-out: antiproliferative activity IC50, HL-60. How it is done:
as §1

Data set [18] relates to U937 cells. The experiment in a line: Cell proliferation assay Method B, U937. In kind it is cell-based. The note with it: Homo sapiens, U-937, AML, 72 hours, read-out: antiproliferative activity IC50, U937. On the procedure:
as §1

Data set [19] concerns THP-1 cells. Put plainly: Cell proliferation assay Method B, THP-1. It counts as cell-based. The note with it: Homo sapiens, AML, 72 hours, read-out: antiproliferative activity IC50, THP-1. On the procedure: as §1
Data set [20] has as its system MV-4-11 cells. The experiment in a line: Cell proliferation assay Method B, MV-4-11. In kind it is cell-based. The note with it: Homo sapiens, MV4-11, AML, 72 hours, read-out: antiproliferative activity IC50, MV-4-11. On the procedure:
as §1

In data set [21] the test system is Pfeiffer cells. Put plainly: Cell proliferation assay Method B, Pfeiffer. In kind it is cell-based. The note with it: Homo sapiens, NHL, 72 hours, read-out: antiproliferative activity IC50, Pfeiffer. On the procedure:
as §1

Data set [22] relates to Raji cells. The experiment in a line: Cell proliferation assay Method B, Raji. It counts as cell-based. The conditions noted are these: Homo sapiens, NHL, 72 hours, read-out: antiproliferative activity IC50, Raji. How it is done:
as §1

In data set [23] the test system is Daudi cells. The experiment in a line: Cell proliferation assay Method B, Daudi. It counts as cell-based. The note with it: Homo sapiens, NHL, 72 hours, read-out: antiproliferative activity IC50, Daudi. How it is done: as §1
Data set [24] has as its system K562 cells. Put plainly: Cell proliferation assay Method B, K562. The note with it: Homo sapiens, CML, 72 hours, read-out: antiproliferative activity IC50, K562. In kind it is cell-based. How it is done: as §1
Data set [25] relates to MEG-01 cells. The experiment in a line: Cell proliferation assay Method B, MEG-01. It counts as cell-based. The note with it: Homo sapiens, CML, 72 hours, read-out: antiproliferative activity IC50, MEG-01. How it is done: as §1
The test system of data set [26] is RPMI-8226 cells. The experiment in a line: Cell proliferation assay Method B, RPMI-8226. In kind it is cell-based. The note with it: Homo sapiens, Multiple Myeloma, Method B, 72 hours, read-out: antiproliferative activity IC50, RPMI-8226. How it is done: as §1
In data set [27] the test system is ARH77 cells. Put plainly: Cell proliferation assay Method B, ARH77. It counts as cell-based. The conditions noted are these: Homo sapiens, ARH-77, Multiple Myeloma, 72 hours, read-out: antiproliferative activity IC50, ARH77. On the procedure:
as §1

Data set [28] concerns L1210 cells. The experiment in a line: Cell proliferation assay Method B, L1210. In kind it is cell-based. The note with it: Mouse LL, 72 hours, read-out: antiproliferative activity IC50, L1210. How it is done:
as §1

For data set [29], the system named is P388 D1 cells. The experiment in a line: Cell proliferation assay Method B, P388 D1. In kind it is cell-based. The conditions noted are these: P388D1, Mouse Lymphoma, 72 hours, read-out: antiproliferative activity IC50, P388 D1. How it is done:
as §1

This passage reports IC50 and melting point results from patent US8906909B2 (Curis, Inc., priority 2009, dated 2014).

T1 sequence (P42336 whole entry): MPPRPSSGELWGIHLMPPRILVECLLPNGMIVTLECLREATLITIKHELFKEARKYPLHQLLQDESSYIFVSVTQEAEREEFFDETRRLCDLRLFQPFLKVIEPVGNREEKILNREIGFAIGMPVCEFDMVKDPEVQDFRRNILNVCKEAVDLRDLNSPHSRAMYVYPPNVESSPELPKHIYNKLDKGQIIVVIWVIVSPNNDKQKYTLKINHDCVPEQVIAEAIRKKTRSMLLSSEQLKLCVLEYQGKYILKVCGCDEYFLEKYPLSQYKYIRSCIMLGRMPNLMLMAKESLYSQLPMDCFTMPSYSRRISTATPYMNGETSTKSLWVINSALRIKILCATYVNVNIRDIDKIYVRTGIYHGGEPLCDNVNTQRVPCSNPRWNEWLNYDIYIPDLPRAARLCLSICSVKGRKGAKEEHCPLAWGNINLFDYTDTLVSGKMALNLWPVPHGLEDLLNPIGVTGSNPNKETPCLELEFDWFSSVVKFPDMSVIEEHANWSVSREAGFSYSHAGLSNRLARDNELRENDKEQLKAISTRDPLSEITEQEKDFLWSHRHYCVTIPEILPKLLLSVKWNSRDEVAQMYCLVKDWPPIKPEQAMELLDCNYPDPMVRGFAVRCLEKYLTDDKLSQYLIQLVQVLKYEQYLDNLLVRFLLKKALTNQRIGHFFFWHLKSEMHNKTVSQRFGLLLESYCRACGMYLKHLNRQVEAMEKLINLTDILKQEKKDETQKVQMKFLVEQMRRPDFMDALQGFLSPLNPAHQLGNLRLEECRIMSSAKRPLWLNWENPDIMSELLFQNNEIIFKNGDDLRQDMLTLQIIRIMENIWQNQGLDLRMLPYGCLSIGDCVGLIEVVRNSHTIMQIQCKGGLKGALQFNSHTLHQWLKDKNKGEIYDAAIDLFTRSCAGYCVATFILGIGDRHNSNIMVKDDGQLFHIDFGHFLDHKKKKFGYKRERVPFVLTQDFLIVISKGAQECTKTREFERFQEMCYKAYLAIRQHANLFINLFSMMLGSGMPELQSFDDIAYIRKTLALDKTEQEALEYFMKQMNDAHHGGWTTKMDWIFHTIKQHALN
T1 sequence (P27986 whole entry partner): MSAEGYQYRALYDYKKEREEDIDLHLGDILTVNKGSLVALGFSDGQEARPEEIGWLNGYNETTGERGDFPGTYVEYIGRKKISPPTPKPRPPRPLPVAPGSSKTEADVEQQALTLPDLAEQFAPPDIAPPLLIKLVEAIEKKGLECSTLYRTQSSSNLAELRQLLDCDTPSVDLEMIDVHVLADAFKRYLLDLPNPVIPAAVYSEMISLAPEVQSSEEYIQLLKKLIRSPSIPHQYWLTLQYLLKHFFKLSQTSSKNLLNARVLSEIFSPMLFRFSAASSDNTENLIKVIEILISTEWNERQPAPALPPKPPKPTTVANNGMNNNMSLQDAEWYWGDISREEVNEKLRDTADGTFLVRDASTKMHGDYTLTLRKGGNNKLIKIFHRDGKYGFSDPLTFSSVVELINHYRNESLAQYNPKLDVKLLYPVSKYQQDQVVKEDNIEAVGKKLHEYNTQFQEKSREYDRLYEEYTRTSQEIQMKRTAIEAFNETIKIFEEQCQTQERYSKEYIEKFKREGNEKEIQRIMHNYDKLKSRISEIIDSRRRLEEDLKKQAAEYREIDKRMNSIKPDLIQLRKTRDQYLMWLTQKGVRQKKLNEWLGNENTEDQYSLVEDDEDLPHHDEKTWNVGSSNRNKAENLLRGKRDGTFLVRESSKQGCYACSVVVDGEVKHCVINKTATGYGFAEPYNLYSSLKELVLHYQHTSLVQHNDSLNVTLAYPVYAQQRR

As to `CS(=O)(=O)N1CCN(Cc2cc3nc(-c4cccc5c4cnn5CCCCC(=O)NO)nc(N4CCOCC4)c3s2)CC1` [Compound 3, N-hydroxy-5-(4-(6-((4-(methylsulfonyl)piperazin-1-yl)methyl)-4-morpholinothieno[3,2-d]pyrimidin-2-yl)-1H-indazol-1-yl)pentanamide], the melting point lay in the range of 139 to 143 °C. Besides, the IC50 in data set [1] is above 10000 nM. The compound further came in with an IC50 in data set [2] below 100 nM.

Regarding `COc1ccc(-c2nc(N3CCOCC3)c3sc(CN(C)c4ncc(C(=O)NO)cn4)cc3n2)cn1` [Compound 236, N-Hydroxy-2-(((2-(6-methoxypyridin-3-yl)-4-morpholinothieno[3,2-d]pyrimidin-6-yl)methyl)(methyl)amino)pyrimidine-5-carboxamide], the IC50 in data set [2] was below 100 nM; in [3], 10 to 100 nM; in [4], below 10 nM; in data set [5], 10 to 100 nM; in data set [6] it was 10 to 100 nM; in data set [7], below 10 nM. The IC50 in data set [8] was below 10 nM; in [9], 10 to 100 nM; in data set [10], below 10 nM; in data set [11], below 10 nM; in data set [12], 10 to 100 nM; in data set [13], 10 to 100 nM. Further, the IC50 is 10 to 100 nM in data set [14]; below 10 nM in [15]; below 10 nM in data set [16]; below 10 nM in data set [17]; below 10 nM in data set [18]; 10 to 100 nM in data set [19]. Also, the IC50 in [20] was below 10 nM; in data set [21], below 10 nM; in [22] it was 10 to 100 nM; in data set [23], 10 to 100 nM; in data set [24], 100 to 1000 nM; in data set [25] it was 10 to 100 nM. The IC50 is below 10 nM in data set [26], 10 to 100 nM in data set [27], 10 to 100 nM in data set [28] and 10 to 100 nM in [29].

For `CS(=O)(=O)N1CCN(Cc2cc3nc(-c4cccc5c4cnn5CCCCCC(=O)NO)nc(N4CCOCC4)c3s2)CC1` [Compound 4], the melting point is 186 to 187 °C. The same compound displayed an IC50 in data set [1] above 10000 nM. The compound further yielded an IC50 in data set [2] below 100 nM.

Regarding `CNc1ccc(-c2nc(N3CCOCC3)c3sc(CN(C)c4ncc(C(=O)NO)cn4)cc3n2)cn1` [Compound 111, N-Hydroxy-2-(methyl((2-(6-(methylamino)pyridin-3-yl)-4-morpholinothieno[3,2-d]pyrimidin-6-yl)methyl)amino)pyrimidine-5-carboxamide], the IC50 in data set [2] was below 100 nM; in data set [5] it was 10 to 100 nM; in data set [6] it was 10 to 100 nM; in [7], below 10 nM; in data set [8], below 10 nM; in data set [10] it was below 10 nM. Further, the IC50 was below 10 nM in [11]; below 10 nM in data set [12]; 10 to 100 nM in data set [13]; below 10 nM in data set [15]; below 10 nM in [17]; below 10 nM in data set [18]. Also, the concentration for half-maximal inhibition (IC50) was 10 to 100 nM in data set [19]; below 10 nM in data set [20]; below 10 nM in data set [21]; 10 to 100 nM in [22]; below 10 nM in data set [23]; 10 to 100 nM in [24]. The IC50 in [26], in [27], in [28] and in data set [29] was below 10 nM in each case.
